How the values were obtained:
[1] = molecular target: T1, binding of caspase3 and xIAP (Homo sapiens, UniProt P98170); assay: pull down assay using tagged MBP; conditions: chromomycin increased from 50 μM to 200 μM; MBP resin, SDS PAGE; FIG. 4
T1 construct: made in house; host or cells: E. coli BL21
Experimental: In order to examine whether chromomycin, screened in the example 2, is activated by the reaction of caspase3 and xIAP, pull down assay using tagged MBP (Maltose Binding Protein) was performed. After xIAP and chromomyicin were added to MBP resin and allowed to react on ice for 2 hours, the resulting mixture was added with caspase3 and allowed to react for about 3 hours, and then washed with PBS buffer solution to load onto 10% SDS PAGE, thus examining the reactant (FIG. 4).

[2] = system: colorectal cancer cell line HCT116; assay: inhibition of proliferation of cancer cell lines (WST-8); format: cell-based; conditions: Homo sapiens, HCT-116, WST-8, over 24 hours treatment, read-out: IC 50 (proliferation)
Experimental: (§1) To examine inhibition of proliferation of the cell lines, the cancer cell lines HCT 116 (Mecoy's 5A medium), SW620 (RPMI 1640) and MDA-MB-231 (RPMI 1640) were cultured to disperse in a 96 well plate. SW620 and HCT116 were innoculated at a concentration of 7,000 cells/100 μl, and MDA-MB-231 was innoculated at a concentration of 5,000 cells/100 μl, respectively, and cultured overnight, followed by an additional reaction of over 24 hours after treating with 1 μl chromomycin prepared according to the concentration. Next, the resulting cells were added with 10 μl of WST-8, counted with an ELISA reader at 450 nm after 2 hours and calculated as a percentage of comparative control added only with DMSO. Inhibitory concentration (IC50), with respect to proliferation of cell lines MDA-MB -231, HCT116, SW620, was measured within the concentration range from 0 to 1 µg/ml by dissolving chromomycin in DMSO (Table 1).

[3] = system: breast cancer cell line MDA-MB-231; assay: as above; format: cell-based; conditions: Homo sapiens, WST-8, over 24 hours treatment, read-out: IC 50 (proliferation)
Experimental: as §1

[4] = system: colorectal cancer cell line SW620; assay: as above; format: cell-based; conditions: Homo sapiens, SW-620, WST-8, over 24 hours treatment, read-out: IC 50 (proliferation)
Experimental: as §1

[5] = molecular target: T2, binding between caspase3 and xIAP (Homo sapiens, UniProt P98170); assay: protein chip (CI-chip) SPR imaging screening of inhibitors of interaction between caspase3 and xIAP; conditions: within the range from 50 to 400 μM; FIG. 3
T2 construct: made in house; host or cells: E. coli BL21
Source text: Whether the obtained proteins bind to the gold chip having L-glutathione on the surface thereof, was pre-experimented. After a bacteria cell extract containing 20% glycerol, in which GST-tag-fused cas3 (29) obtained in Example 1-1 has been over-expressed, was dispersed in 384 microwell plate, it was spotted on the gold chip having L-glutathione on the surface thereof with a pin having a diameter of 335 μm under a constant humidity of 75% using automatic robotic arrayer(proteogen, CM-1000), and then subjected to RT shaking incubation for 3 hours, thus constructing Cl-chip having gold chip as a substrate.
Inhibitors of interaction between caspase3 and xIAP were screened using the protein chip based on the gold chip prepared in example 1. 920 microorganism-derived samples, which was purely isolated or partially purified, were reacted with 15 μl solution (3.75 μl of more than 50% glycerol; 3 μl of material dissolved in DMSO at a concentration of less than 10 mg/ml; 7.5 μl of xIAP dissolved in PBS at a concentration of more than 1 mg/ml; 0.75 μl of PBS buffer) at 4° C. for 2 hours to apply to the protein chip. Inhibitory activity was analyzed using SPR imaging as the concentration of protein in solution was increased (FIG. 3).

T1 sequence (P98170 whole entry): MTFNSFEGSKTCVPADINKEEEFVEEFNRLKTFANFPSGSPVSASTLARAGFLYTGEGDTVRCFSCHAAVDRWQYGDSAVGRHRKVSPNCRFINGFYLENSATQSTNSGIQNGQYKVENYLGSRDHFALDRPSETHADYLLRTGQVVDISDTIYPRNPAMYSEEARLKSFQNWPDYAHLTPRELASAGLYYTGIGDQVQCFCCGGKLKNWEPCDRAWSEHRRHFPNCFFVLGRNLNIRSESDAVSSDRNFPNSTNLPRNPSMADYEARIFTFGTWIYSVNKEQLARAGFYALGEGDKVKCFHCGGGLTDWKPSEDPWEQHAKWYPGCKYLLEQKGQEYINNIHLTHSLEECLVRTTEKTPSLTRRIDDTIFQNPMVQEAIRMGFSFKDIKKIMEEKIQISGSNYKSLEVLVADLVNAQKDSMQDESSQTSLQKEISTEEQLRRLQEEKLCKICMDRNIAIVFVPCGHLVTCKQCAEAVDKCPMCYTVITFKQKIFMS
T2 sequence (P98170 whole entry): as above

## COC1C(O)CC(OC2CC(Oc3cc4cc5c(c(O)c4c(O)c3C)C(=O)[C@@H](OC3CC(OC4CC(OC6CC(C)(O)C(OC(C)=O)C(C)O6)C(O)C(C)O4)C(O)C(C)O3)[C@H]([C@H](OC)C(=O)[C@@H](O)[C@@H](C)O)C5)OC(C)C2OC(C)=O)OC1C (some centres unmarked) [Chromomycin]
[1]
  resulting reactant of xIAP (MX) and caspase3 (Cas3) in pull down assay: reduced
[2]
  IC50: 6.7 nM
[3]
  IC50: 8.4 nM
[4]
  IC50: 80 nM
[5]
  inhibition reaction in the protein chip (SPR imaging): constant inhibition reaction concentration-dependently
